The record followed here is patent publication US20260174780A1, “BISMUTH-THIOL COMPOSITIONS AND METHODS FOR TREATING INFLAMMATORY DISEASES” (Microbion Corporation, priority 2022, published 2026).

“Also recorded” adds a separate entry of the source. Like-named read-outs stand apart in the source and are kept apart here.

Data set [1] has as its system cytokines in bronchoalveolar lavage fluid (BALF). The experiment in a line: Cytokines in BALF of rats after a single inhaled dose of BisEDT. Type of data set: in vivo, Sprague-Dawley rats. The note with it: day 8 compared to day 2; single low (1 mg/kg) or high (7 mg/kg) inhaled dose. The method, then:
Two concentrations (low: 1 mg/kg; high: 7 mg/kg) of BisEDT were evaluated by inhalation in rats.
Bronchoalveolar lavage fluid (BALF) samples from day 2 (D2) and day 8 (D8) post treatment were analyzed for the expression of cytokines.
Protocol: Sprague-Dawley rats were randomly assigned to a study group based on body weight. Adult, male Sprague-Dawley rats (n=6 per group) were exposed to the aerosolized test article (TA) with a single dose on Study Day 1. Groups 1, 2, and 3 were exposed by inhalation to 1 mg/kg (targeted presented dose) of BisEDT sample 1, BisEDT sample 2, or BisEDT sample 3, respectively. Groups 4, 5, and 6 were exposed by inhalation to 7 mg/kg (targeted presented dose) of BisEDT sample 1, BisEDT sample 2, or BisEDT sample 3, respectively. Animals were necropsied on Study Days 2, 4, and 8, and terminal blood collections were conducted at that time.
Blood Processing: All blood samples were placed into a tube containing K3EDTA, and mixed thoroughly. Following mixing, blood obtained at the time of euthanasia was divided in half. Half of the blood sample was stored frozen without further processing pending bioanalysis. The remaining half was placed on wet ice before being processed to plasma by centrifugation at 2500×g for ≥10 minutes at 2 to 8° C. Plasma was aliquoted into a cryovial(s), snap frozen in liquid nitrogen, and stored at −80° C.±10° C. until cytokine analysis was performed using ELISA kits following manufacturer's instructions.

A short description of data set [2]: Tolerability of inhaled BisEDT in the M. abscessus mouse study. In kind it is in vivo, SCID/Beige mice. Particulars: inhaled 200 and 1000 μg/kg/day, 28 days. The method, then: A nose-only inhalation exposure chamber from CH technologies was used for this experiment. Mice were split into four treatment groups, Vehicle (buffer containing no BisEDT), amikacin (100 μg/kg/day), BisEDT “low” (200 μg/kg/day), and BisEDT “high” (1000 μg/kg/day). Each treatment group consisted of 12 mice. Ten of these mice were used for CFU determination and two mice are used for histology/pathology/lung pharmacokinetics. Treatment was conducted 6 days a week over the course of 28 days total. To create the correct level of deposited dose of each drug tested, 10 mL of test article were made. Amikacin in HBSS at 20 mg/mL was made and stored at 4° C. until needed. BisEDT “high” at a concentration of 8 mg/mL was made once a week and stored at room temperature. BisEDT “low” was diluted from the 8 mg/mL to 1.6 mg/mL the day of treatment. Each treatment used an LC star reusable nebulizer from Pari. Animals were restrained and placed on the inhalation apparatus. The respiratory hose was connected to the inhalation apparatus and a compressor was connected to the nebulizer. The rate of air flow from the compressor to the nebulizer remained at 8.5 L/minute, which generated a nebulized fog that each mouse breathed in over 45 min.

For data set [3], the system named is lung tissue of M. abscessus infected mice. The experiment in a line: Lung histopathology in chronic M. abscessus infection study. In kind it is in vivo, SCID/Beige mice. As for the experimental part: After 28 days of treatment with BisEDT, animals were euthanized by CO2 and secondary cardiac puncture to collect whole blood for quantitation of BisEDT concentration. Lungs and spleens from the CFU mice were homogenized with 1:1 H2O:Dey-Englev neutralizing broth to deactivate BisEDT. CFUs were determined after serial dilution. Mice for histology and the lung pair split, one half in formalin the other half weighed and snap frozen in liquid N2 to determine tissue concentration of BisEDT.
Samples for histology were processed by the Veterinary Diagnostic Laboratory. Slides were stained with hematoxylin-eosin (HE stain) for general pathology as well as a slide for acid-fast stain to highlight the mycobacterial infection in lung tissue.

The test system of the next data set is neutrophils. The experiment in a line: In vitro model of neutrophil recruitment to the lung (transmigration, supernatant and conditioned media cytokines). In kind it is cell-based, human. The note with it: for viability of the cells: CF-conditioned media and normal media (LTB4); for neutrophil transmigration / recruitment: CF-conditioned media and LTB4. The source says:
FIG. 6 provides a description of the assay for in vitro modeling of neutrophil recruitment to the lung.
FIG. 7 provides a summary of the process for comparing cellular and soluble inflammatory markers in vitro.
The neutrophils used are primary cells harvested from normal healthy volunteers immediately prior to the study. Cellular and soluble inflammatory markers were compared in vitro as described in FIG. 7.

A further data set relates to AIM2 inflammasome. The experiment in a line: qPCR of AIM2 in BEAS-2B cells. Type of data set: cell-based, human. Particulars: 0.5-4 μg/mL, 24 hours. As for the experimental part:
Protocol: BEAS-2B cells were grown in tissue culture flasks and a 24-well plate was seeded with 2×10^5 cells/well and incubated at 37° C. and 5% CO2 for 48 hours. Select wells were treated with either 4 μg/mL, 2 μg/mL, 1 μg/mL, or 0.5 μg/mL BisEDT or left untreated as a control and incubated at 37° C. and 5% CO2 for 24 hours. Cell culture supernatant was collected from each well and stored at −20° C. until further ELISA analysis. On the day of the ELISA assays to determine the expression of each cytokine, cell culture supernatant was thawed, and the assays performed following the manufacturer's instructions. Cells were collected for RNA isolation using Qiagen RNeasy kit using manufacturers' instructions. Briefly, genomic DNA was degraded with DNase (Roche) and samples were incubated at 37° C. for 1 hour followed by 3 μL DNase inactivation reagent (Invitrogen) incubated at 37° C. for 2 minutes. Samples were centrifuged at maximum speed for 5 minutes to remove the inactivation reagent. RNA concentration and quality was evaluated using a Nanodrop. RNA samples were utilized to generate cDNA using cDNA synthesis kit (Bio-Rad). qPCR for AIM2 and actin (housekeeping gene) was conducted using SYBR green kit (Bio-Rad) along with standards.
In general terms: Quantitative PCR measures a nucleic acid by following its amplification.

Regarding `C1C[S][Bi]([S]CC[S][Bi]2[S]CC[S]2)[S]1` [BisEDT, 1,2-(Bis(1,3-dithia-2-bismolane)thio)ethane], in data set [1], the “expression of IL-1β in BALF” value is reported as “Consistent reduction”, the “expression of IL-17A in BALF” value is listed as “Consistent reduction” and the “expression of TNF-α in BALF” value is on record as “Consistent reduction”. Further, in data set [2], the “body weight at the end of treatment” value is listed as “within the normal weight range” and the tolerability entry was “well tolerated”. Besides, the “inflammatory process caused by the test article in lung” value in data set [3] (M. abscessus infected, BisEDT treated mice) was “no indication of an inflammatory process caused by the BisEDT”. In addition, the lung histomorphologic observation entry in data set [3] (high-dose (1000 μg/kg/day), FIG. 5D) was “the inflammatory response was receding and clear airways were observed”. Further, the lung histomorphologic observation result in data set [3] (low-dose (200 μg/kg/day), FIG. 5C) was “decrease of inflammatory infiltrate compared to untreated control and a decrease in hemorrhage”. For the same compound, in the data set on neutrophils, the “activity of caspase-1 (FLICA)” value was “slightly reduced” and the “viability of the cells” value is given as “very high level of viability”. Moreover, in the data set on neutrophils (6 hours, compared to vehicle), the “IL-18 level in transmigration supernatant” value is “appreciably lower level”. Moreover, in the data set with neutrophils (listed as pravibismane), the “viability of the cells” value is reported as “no effect on cell viability” and the “activity of caspase-1 (FLICA)” value is listed as “slight reduction”. In the data set with neutrophils (compared to vehicle), the “IL-18 in conditioned media” value is “down-regulated” and the “neutrophil transmigration / recruitment” value was “lower level of neutrophil transmigration; also recorded: inhibits neutrophil recruitment”. Besides, the “neutrophil transmigration / recruitment” value in the data set on neutrophils (compared to vehicle, listed as pravibismane) is “reduced transmigration efficiency”. Moreover, in the data set with neutrophils (conditioned media), the “IL-6 in conditioned media” value is recorded as “Very minor changes”, the “expression of VEGF” value is given as “small increase” and the “interferon-gamma in conditioned media” value is recorded as “Very minor changes”. Further, the IL-10 secretion result with neutrophils (summary) is “substantially increased”. Also, the “CCL4 (macrophage inflammatory protein)” value with neutrophils (transmigration supernatant, 6-hour time point) was “reduced”. In addition, in the data set with AIM2 inflammasome, the “AIM2 inflammasome expression (AIM2/Actin copy number)” value was “inhibit AIM2 inflammasome expression”.
